For data set [1], the system named is mFAP transfected HEK293 cells. The experiment in a line: CellTiter-Blue cell viability assay. The data set is classed as cell-based. The note with it: 48 h.
Another data set has as its system tumor growth. The following applies: mice inoculated with those same cells; cited from earlier work.
A further data set concerns several tumor cell lines. The following applies: cited from earlier work.
The next data set concerns the target T1, FAP (Homo sapiens, UniProt Q12884).
T1 sequence (Q12884 1-760): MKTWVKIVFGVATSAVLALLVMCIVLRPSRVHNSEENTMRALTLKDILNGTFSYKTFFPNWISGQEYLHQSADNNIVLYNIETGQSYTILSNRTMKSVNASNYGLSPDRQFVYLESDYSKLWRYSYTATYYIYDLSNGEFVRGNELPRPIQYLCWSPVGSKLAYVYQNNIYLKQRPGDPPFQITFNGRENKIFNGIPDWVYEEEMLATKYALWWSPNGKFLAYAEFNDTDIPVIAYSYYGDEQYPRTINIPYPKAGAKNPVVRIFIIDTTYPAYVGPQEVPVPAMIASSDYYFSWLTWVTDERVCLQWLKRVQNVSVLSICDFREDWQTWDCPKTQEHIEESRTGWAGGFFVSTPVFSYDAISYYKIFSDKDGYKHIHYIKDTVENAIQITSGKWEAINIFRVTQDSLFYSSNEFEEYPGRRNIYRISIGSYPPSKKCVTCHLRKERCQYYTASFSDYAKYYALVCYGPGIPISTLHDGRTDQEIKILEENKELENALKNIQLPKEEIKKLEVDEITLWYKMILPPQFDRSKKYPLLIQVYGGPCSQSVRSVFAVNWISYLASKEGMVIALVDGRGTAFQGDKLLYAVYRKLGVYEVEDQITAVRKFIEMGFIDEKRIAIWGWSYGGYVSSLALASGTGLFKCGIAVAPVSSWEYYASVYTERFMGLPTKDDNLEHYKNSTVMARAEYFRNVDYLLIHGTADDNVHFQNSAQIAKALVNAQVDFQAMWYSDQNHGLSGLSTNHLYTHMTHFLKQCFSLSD
Kind of data set: Enzyme kinetics. In kind it is biochemical. The note with it: highest concentrations tested.

A further data set deals with cells. The note with it: cells in vitro and in vivo; cited from earlier work.

Structures are written as SMILES.

In the case of `C[C@@H](NC(=O)c1ccncc1)C(=O)N1CCC[C@H]1B(O)O` [Compound 6, N-(Pyridine-4-carbonyl)-(R)-alaninyl-(R)-boroproline], the cytotoxicity entry in data set [1] was “No cytotoxicity was observed”.
Consider `CC(C)[C@H](N)C(=O)N1CCC[C@H]1B(O)O` [Compound 20, (S)-Valinyl-(R)-boroproline], for which, in the data set on tumor growth, the “tumor growth in vivo” value is on record as “attenuating tumor growth in vivo”. The cytotoxicity result with several tumor cell lines is recorded as “lack cytotoxicity against several tumor cell lines”.
Regarding `CC(C)[C@H](NC(=O)c1cccnc1)C(=O)N1CCC[C@H]1B(O)O` [Compound 22, N-(Pyridine-3-carbonyl)-(R)-valinyl-(R)-boroproline], the “inhibition of FAP in kinetic analysis” value against FAP is reported as “does not inhibit FAP at the highest concentrations tested”.
On to `CC(C)C[C@H](NC(=O)[C@H](Cc1ccccc1)NC(=O)c1cnccn1)B(O)O` [bortezomib, Bortezomib], for which the cytotoxicity result in the data set on cells is given as “cytotoxic”.
